Measured values published in patent publication US9206130B2, “Quinoline derivatives as AXL kinase inhibitors” (Max-Planck-Gesellschaft zur Förderung der Wissenschaften …, priority 2008, dated 2015).

Experiments:
[1] = molecular target: T1, wild type AXL (wtAXL) receptor tyrosine kinase (Homo sapiens, UniProt P30530); experiment: NIH-3T3-AXL cellular tyrosine kinase assay (inhibition of AXL phosphorylation); assay type: cell-based; details: AXL phosphorylation in NIH-3T3-AXL (clone 22) cells, serum-depleted, 2 h with compound, immunoprecipitation / anti-phosphotyrosine blot
T1 construct: WtAXL cDNA was cloned into vector pLXSN(ESK) and transfected into Phoenix E packaging cells; expressed in transfected cells; host or cells: NIH3T3 N7 mouse fibroblasts, retrovirally infected (clone 22)
T1 sequence (P30530 26-894): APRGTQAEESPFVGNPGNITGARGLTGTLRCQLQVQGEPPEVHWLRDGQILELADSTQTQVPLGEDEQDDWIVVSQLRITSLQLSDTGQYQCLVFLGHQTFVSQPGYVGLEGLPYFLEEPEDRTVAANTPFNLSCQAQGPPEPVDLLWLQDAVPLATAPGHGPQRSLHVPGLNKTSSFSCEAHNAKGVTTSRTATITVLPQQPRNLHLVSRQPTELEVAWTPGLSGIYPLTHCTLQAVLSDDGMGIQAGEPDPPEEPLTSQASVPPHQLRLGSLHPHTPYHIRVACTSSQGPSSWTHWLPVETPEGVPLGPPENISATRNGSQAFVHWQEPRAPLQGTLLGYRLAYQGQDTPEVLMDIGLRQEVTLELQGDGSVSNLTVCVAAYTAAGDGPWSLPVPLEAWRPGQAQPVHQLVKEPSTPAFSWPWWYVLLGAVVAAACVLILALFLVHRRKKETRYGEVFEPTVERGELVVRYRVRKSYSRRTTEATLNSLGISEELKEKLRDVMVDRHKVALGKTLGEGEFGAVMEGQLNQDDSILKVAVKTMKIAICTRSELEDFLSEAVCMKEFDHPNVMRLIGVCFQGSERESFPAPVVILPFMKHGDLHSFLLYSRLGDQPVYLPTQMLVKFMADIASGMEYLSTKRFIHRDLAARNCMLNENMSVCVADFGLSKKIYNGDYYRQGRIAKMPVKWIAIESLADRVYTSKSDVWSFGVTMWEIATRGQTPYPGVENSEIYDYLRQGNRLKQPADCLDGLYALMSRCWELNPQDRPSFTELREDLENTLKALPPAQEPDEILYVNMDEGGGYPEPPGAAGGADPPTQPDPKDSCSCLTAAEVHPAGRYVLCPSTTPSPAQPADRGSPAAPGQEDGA
Description: 3) Inhibitory Activity of Compounds on Axl Phosphorylation in NIH-3T3-AXL Cellular Tyrosine Kinase Assay
The viral supernatant was collected and used to infect target cells NIH3T3 N7. Monoclonal NIH3T3-AXL cell lines stably expressing wtAXL were generated by selecting retrovirally infected cells in medium containing puromycin (2 μg/ml) and subsequent clonal separation.
NIH-3T3-AXL Cellular Kinase Assay
Serial dilutions of compounds were added, and the cells were further incubated or 2 h. […] The clarified cell lysate (10 min at 13000 rpm at 4° C.) were used for immunoprecipitation. Equal amounts of protein were mixed with 2 μg anti-AXL polyclonal antibody (homemade) and 20 μl Protein A sepharose beads, and rotated for 6 hr at 4° C. After immunoprecipitation, the beads were washed three times with 1×HNTG (50 mM HEPES (pH 7.5), 150 mM NaCl, 10% Glycerol, 0.2% Triton X-100). The final pellet was suspended in 20 μl 2× Laemmli buffer, and boiled for 5 min at 100° C. […] The membrane was then incubated with anti-phosphotyrosine antibody (4G10) overnight at 4° C. followed by washing with 1×TBST buffer three times. After incubating membrane with HRP-conjugated anti-mouse secondary antibody for 1 hour at room temperature followed by washing with 1×TBST buffer three times, the proteins were visualized by ECL.

SMILES | IC50 [1] | melting point
COc1cc2nccc(Oc3ccc(NS(=O)(=O)c4cccc(Cl)c4)c(F)c3)c2cc1OC [Example A25, 3-Chloro-N-[4-(6,7-dimethoxy-quinolin-4-yloxy)-2-fluoro-phenyl]-benzenesulfonamide] | 2380 nM | 250 to 251 °C
COc1cc2nccc(Oc3ccc(NS(=O)(=O)c4cccc(C)c4)c(F)c3)c2cc1OC [Example A26, N-[4-(6,7-Dimethoxy-quinolin-4-yloxy)-2-fluoro-phenyl]-3-methyl-benzenesulfonamide] | 4730 nM | 244 to 245 °C
COc1cccc(S(=O)(=O)Nc2ccc(Oc3ccnc4cc(OC)c(OC)cc34)cc2F)c1 [Example A27, N-[4-(6,7-Dimethoxy-quinolin-4-yloxy)-2-fluoro-phenyl]-3-methoxy-benzenesulfonamide] | 2540 nM | 224 to 225 °C
COc1cc2nccc(Oc3ccc(NS(=O)(=O)c4ccc(Cl)s4)c(F)c3)c2cc1OC [Example A28, 5-Chloro-thiophene-2-sulfonic acid [4-(6,7-dimethoxy-quinolin-4-yloxy)-2-fluoro-phenyl]-amide] | 3900 nM | 187 to 189 °C
COc1cc2nccc(Oc3ccc(NS(=O)(=O)c4ccc(Br)s4)c(F)c3)c2cc1OC [Example A29, 5-Bromo-thiophene-2-sulfonic acid [4-(6,7-dimethoxy-quinolin-4-yloxy)-2-fluoro-phenyl]-amide] | 2300 nM | 207 to 209 °C
COc1cc2nccc(Oc3ccc(NS(=O)(=O)c4cccc(Oc5ccccc5)c4)c(F)c3)c2cc1OC [Example A30, N-[4-(6,7-Dimethoxy-quinolin-4-yloxy)-2-fluoro-phenyl]-3-phenoxy-benzenesulfonamide] | 630 nM | 179 to 180 °C
CCn1cc(S(=O)(=O)Nc2ccc(Oc3ccnc4cc(OC)c(OC)cc34)cc2F)cn1 [Example A31, 1-Ethyl-1H-pyrazole-4-sulfonic acid [4-(6,7-dimethoxy-quinolin-4-yloxy)-2-fluoro-phenyl]-amide] | > 10000 nM | 211 to 213 °C
COc1cc2nccc(Oc3ccc(NS(=O)(=O)c4cn(C)cn4)c(F)c3)c2cc1OC [Example A32, 1-Methyl-1H-imidazole-4-sulfonic acid [4-(6,7-dimethoxy-quinolin-4-yloxy)-2-fluoro-phenyl]-amide] | > 10000 nM | 215 to 217 °C
COc1cc2nccc(Oc3ccc(NS(=O)(=O)C4CC4)c(F)c3)c2cc1OC [Example A33, Cyclopropanesulfonic acid [4-(6,7-dimethoxy-quinolin-4-yloxy)-2-fluoro-phenyl]-amide] | > 10000 nM | 179 to 180 °C
COc1cc2nccc(Oc3ccc(NS(=O)(=O)c4cccc(-c5ccccc5)c4)c(F)c3)c2cc1OC [Example A34, Biphenyl-3-sulfonic acid [4-(6,7-dimethoxy-quinolin-4-yloxy)-2-fluoro-phenyl]-amide] | 430 nM | 193 to 195 °C
COc1cc2nccc(Oc3ccc(NS(=O)(=O)c4ccc(-c5ccccc5)s4)c(F)c3)c2cc1OC [Example A36, 5-Phenyl-thiophene-2-sulfonic acid [4-(6,7-dimethoxy-quinolin-4-yloxy)-2-fluoro-phenyl]-amide] | 2800 nM | 186 to 188 °C
COc1cc2nccc(Oc3ccc(NS(=O)(=O)c4ccc(-c5cnco5)s4)c(F)c3)c2cc1OC [Example A37, 5-Oxazol-5-yl-thiophene-2-sulfonic acid [4-(6,7-dimethoxy-quinolin-4-yloxy)-2-fluoro-phenyl]-amide] | > 10000 nM | 206 to 208 °C
COc1cc2nccc(Oc3ccc(NS(=O)(=O)c4cc(F)cc(F)c4)c(F)c3)c2cc1OC [Example A38, N-[4-(6,7-Dimethoxy-quinolin-4-yloxy)-2-fluoro-phenyl]-3,5-difluoro-benzenesulfonamide] | > 10000 nM | 243 to 245 °C
COc1cc2nccc(Oc3ccc(NS(=O)(=O)c4cc(Cl)cc(Cl)c4)c(F)c3)c2cc1OC [Example A43, 3,5-Dichloro-N-[4-(6,7-dimethoxy-quinolin-4-yloxy)-2-fluoro-phenyl]-benzenesulfonamide] | < 1000 nM | 240 to 242 °C
COc1cc2nccc(Oc3ccc(NS(=O)(=O)c4ccc(C(F)(F)F)cc4Br)c(F)c3)c2cc1OC [Example A45, 2-Bromo-N-[4-(6,7-dimethoxy-quinolin-4-yloxy)-2-fluoro-phenyl]-4-trifluoromethyl-benzenesulfonamide] | > 10000 nM | 236 to 238 °C
COc1cc2nccc(Oc3ccc(NS(=O)(=O)c4cc(C(F)(F)F)ccc4Br)c(F)c3)c2cc1OC [Example A46, 2-Bromo-N-[4-(6,7-dimethoxy-quinolin-4-yloxy)-2-fluoro-phenyl]-5-trifluoromethyl-benzenesulfonamide] | > 10000 nM | 227 to 230 °C
COc1cc2nccc(Oc3ccc(NS(=O)(=O)c4ccc(Br)cc4C(F)(F)F)c(F)c3)c2cc1OC [Example A48, 4-Bromo-N-[4-(6,7-dimethoxy-quinolin-4-yloxy)-2-fluoro-phenyl]-2-trifluoromethyl-benzenesulfonamide] | 1500 nM | 242 to 244 °C
COc1cc2nccc(Oc3ccc(NS(=O)(=O)c4cc(Cl)cc(Cl)c4OC)c(F)c3)c2cc1OC [Example A50, 3,5-Dichloro-N-[4-(6,7-dimethoxy-quinolin-4-yloxy)-2-fluoro-phenyl]-2-methoxy-benzenesulfonamide] | < 1000 nM | 193 to 195 °C
COc1cc2nccc(Oc3ccc(NS(=O)(=O)c4ccccc4OC)c(F)c3)c2cc1OC [Example A52, N-[4-(6,7-Dimethoxy-quinolin-4-yloxy)-2-fluoro-phenyl]-2-methoxy-benzenesulfonamide] | > 3000 nM | 213 to 215 °C
COc1cc2nccc(Oc3ccc(NS(=O)(=O)c4ccccc4Cl)c(F)c3)c2cc1OC [Example A54, 2-Chloro-N-[4-(6,7-dimethoxy-quinolin-4-yloxy)-2-fluoro-phenyl]-benzenesulfonamide] | > 1000 nM | 232 to 234 °C
COc1cc2nccc(Oc3ccc(NS(=O)(=O)c4ccccc4Br)c(F)c3)c2cc1OC [Example A55, 2-Bromo-N-[4-(6,7-dimethoxy-quinolin-4-yloxy)-2-fluoro-phenyl]-benzenesulfonamide] | > 1000 nM | 225 to 227 °C
CCc1ccc(S(=O)(=O)Nc2ccc(Oc3ccnc4cc(OC)c(OC)cc34)cc2F)cc1 [Example A56, N-[4-(6,7-Dimethoxy-quinolin-4-yloxy)-2-fluoro-phenyl]-4-ethyl-benzenesulfonamide] | > 1000 nM | 193 to 195 °C
COc1cc2nccc(Oc3ccc(NS(=O)(=O)c4ccc(Oc5ccccc5)cc4)c(F)c3)c2cc1OC [Example A57, N-[4-(6,7-Dimethoxy-quinolin-4-yloxy)-2-fluoro-phenyl]-4-phenoxy-benzenesulfonamide] | > 3000 nM | 202 to 204 °C
COc1cc2nccc(Oc3ccc(NS(=O)(=O)c4cccc(F)c4C)c(F)c3)c2cc1OC [Example A58, N-[4-(6,7-Dimethoxy-quinolin-4-yloxy)-2-fluoro-phenyl]-3-fluoro-2-methyl-benzenesulfonamide] | > 1000 nM | 204 to 206 °C
COc1cc2nccc(Oc3ccc(NS(=O)(=O)c4ccccc4F)c(F)c3)c2cc1OC [Example A59, N-[4-(6,7-Dimethoxy-quinolin-4-yloxy)-2-fluoro-phenyl]-2-fluoro-benzenesulfonamide] | > 1000 nM | 235 to 236 °C
